In patent US8748418B2, “1,4-oxazepines as BACE1 and/or BACE2 inhibitors” (Hoffmann-La Roche Inc., priority 2011, dated 2014) one finds IC50 data, which are given here for 20 molecules.

Molecules are shown by their SMILES.

The target in test [1] is BACE2 (Homo sapiens (Human), UniProt Q9Y5Z0). Briefly: Immunofluorescence Resonance Energy Transfer (FRET) assay for BACE2 inhibition. In kind it is biochemical. The following applies: TMEM27-based peptide substrate 5 μM, pH 4.5. The method, then: Immunofluorescence Resonance Energy Transfer (FRET) Assay for BACE2 Inhibition:
BACE2 enzyme ectodomain (derived from plasmid “pET17b-T7-hu proBACE2”) was prepared as described in Ostermann et al., “Crystal Structure of Human BACE2 in Complex with a Hydroxyethylamine Transition-state Inhibitor”, Journal of Molecular Biology 2006, 355, 249-261. The pro-enzyme was stored at 4° C. at a concentration of 70 μg/ml.
The FRET assay was performed essentially as described in Grüninger-Leitch et al., Journal of Biological Chemistry (2002) 277(7) 4687-93 (“Substrate and inhibitor profile of BACE (beta-secretase) and comparison with other mammalian aspartic proteases”). In summary, a peptide is designed that is cleaved by the protease. The peptide is labelled with dabcyl at the N terminus and Lucifer Yellow at the C-terminus, such that for an intact peptide the Lucifer Yellow fluorescence is quenched by the dabcyl. When the peptide is cut by BACE2, the quenching is removed and a fluorescent signal is generated.
The assay was performed as described in Grueninger et al. 2002 at pH 4.5 using a substrate concentration of 5 μM. A FRET peptide based on the TMEM27 sequence was devised. dabcyl-[…]-LucY (SEQ ID NO: 1).
The assay readout is the initial rate of change of fluorescence intensity giving a relative measure of BACE2 activity. Small values correspond to high inhibition and larger values to low inhibition. […] IC50 values were determined using these assay values generated for a range of inhibitor concentrations and the curve fitting software XLfit (IDBS) using the Sigmoidal Dose-Response Model.

Test [2] concerns the target BACE1 (Homo sapiens (Human), UniProt P56817). Briefly: Cellular Aβ-lowering assay (Aβ40 ELISA in HEK293 cells expressing human APP695). The settings on record: HEK293 cells stably transfected with human APP wt (APP695), Aβ40 in supernatant after 18-20 hrs. In kind it is cell-based. The method, then: Cellular Aβ-Lowering Assay:
Human HEK293 cells which are stably transfected with a vector expressing a cDNA of the human APP wt gene (APP695) were used to assess the potency of the compounds in a cellular assay. The cells were seeded in 96-well microtiter plates in cell culture medium (Iscove, plus 10% (v/v) fetal bovine serum, glutamine, penicillin/streptomycin) to about 80% confluence and the compounds were added at a 10× concentration in 1/10 volume of medium without FCS containing 8% DMSO (final concentration of DMSO was kept at 0.8% v/v). After 18-20 hrs incubation at 37° C. and 5% CO2 in a humidified incubator the culture supernatant was harvested for the determination of Aβ40 concentrations. 96 well ELISA plates (e.g., Nunc MaxiSorb) were coated with monoclonal antibody which specifically recognize the C-terminal end of Aβ40 (Brockhaus et al., NeuroReport 9, 1481-1486; 1998). After blocking of non-specific binding sites with e.g. 1% BSA and washing, the culture supernatants were added in suitable dilutions together with a horseradish peroxidase-coupled Aβ detection antibody (e.g., antibody 4G8, Senetek, Maryland Heights, Mo.) and incubated for 5 to 7 hrs. Subsequently the wells of the microtiter plate were washed extensively with Tris-buffered saline containing 0.05% Tween 20 and the assay was developed with tetramethylbenzidine/H2O2 in citric acid buffer. After stopping the reaction with one volume 1NH2SO4 the reaction was measured in an ELISA reader at 450 nm wavelength. The concentrations of Aβ in the culture supernatants were calculated from a standard curve obtained with known amounts of pure Aβ peptide.

Sequence of BACE1 (P56817 46-501): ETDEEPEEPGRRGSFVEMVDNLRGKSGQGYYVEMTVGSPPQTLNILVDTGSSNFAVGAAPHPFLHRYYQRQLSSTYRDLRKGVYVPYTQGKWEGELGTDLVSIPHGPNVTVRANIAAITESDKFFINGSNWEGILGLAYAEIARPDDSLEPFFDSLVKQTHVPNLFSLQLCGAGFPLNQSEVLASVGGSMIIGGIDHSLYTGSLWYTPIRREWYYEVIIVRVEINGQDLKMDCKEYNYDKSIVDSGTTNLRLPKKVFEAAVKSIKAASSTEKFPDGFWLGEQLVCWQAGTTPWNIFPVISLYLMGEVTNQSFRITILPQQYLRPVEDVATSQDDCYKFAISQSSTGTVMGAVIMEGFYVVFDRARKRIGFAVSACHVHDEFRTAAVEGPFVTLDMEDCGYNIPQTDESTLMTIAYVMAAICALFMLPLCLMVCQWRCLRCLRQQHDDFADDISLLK
Sequence of BACE2 (Q9Y5Z0 63-473): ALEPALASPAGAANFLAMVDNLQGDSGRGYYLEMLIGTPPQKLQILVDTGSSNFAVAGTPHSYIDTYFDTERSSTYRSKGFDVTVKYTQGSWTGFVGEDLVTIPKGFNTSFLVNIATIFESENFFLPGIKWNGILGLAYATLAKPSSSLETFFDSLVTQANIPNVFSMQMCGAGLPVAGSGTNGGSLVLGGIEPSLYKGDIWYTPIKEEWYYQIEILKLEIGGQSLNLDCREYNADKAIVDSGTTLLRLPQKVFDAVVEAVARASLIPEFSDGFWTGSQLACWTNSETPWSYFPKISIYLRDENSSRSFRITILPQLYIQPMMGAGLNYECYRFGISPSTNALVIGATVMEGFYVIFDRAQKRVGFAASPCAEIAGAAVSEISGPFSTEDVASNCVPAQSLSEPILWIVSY

With `CC[C@]1(c2cc(NCc3nn(C(F)F)cc3Cl)ccc2F)N=C(N)COCC1(F)F` [Example 7, (R)-5-{5-[(4-Chloro-1-difluoromethyl-1H-pyrazol-3-ylmethyl)-amino]-2-fluoro-phenyl}-5-ethyl-6,6-difluoro-2,5,6,7-tetrahydro-[1,4]oxazepin-3-ylamine], the IC50 came to 310 nM in test [1] and 170 nM in test [2].

As for `CC1(C)OCC(N)=N[C@](C)(c2cc(Nc3cccnc3)ccc2F)C1(F)F` [Example 24, (R)-6,6-Difluoro-5-[2-fluoro-5-(pyridin-3-ylamino)-phenyl]-5,7,7-trimethyl-2,5,6,7-tetrahydro-[1,4]oxazepin-3-ylamine], the IC50 in test [1] is 940 nM; in test [2], 1100 nM.

Take `Cn1ccc(Nc2ccc(F)c([C@@]3(C)N=C(N)COC(C)(C)C3(F)F)c2)n1` [Example 18, (R)-6,6-Difluoro-5-[2-fluoro-5-(1-methyl-1H-pyrazol-3-ylamino)-phenyl]-5,7,7-trimethyl-2,5,6,7-tetrahydro-[1,4]oxazepin-3-ylamine]: the IC50 in test [1] turned out to be 530 nM; in test [2], 240 nM.

On to `CC1(C)OCC(N)=N[C@](C)(c2cc(Nc3ccc(Cl)nc3)ccc2F)C1(F)F` [Example 22, (R)-5-[5-(6-Chloro-pyridin-3-ylamino)-2-fluoro-phenyl]-6,6-difluoro-5,7,7-trimethyl-2,5,6,7-tetrahydro-[1,4]oxazepin-3-ylamine], for which the IC50 in test [1] was found to be 1770 nM; in test [2], 370 nM.

On to `C[C@]1(c2cc(Nc3ccc(C#N)cc3)ccc2F)N=C(N)COCC1(F)F` [Example 10, 4-[3-((R)-3-Amino-6,6-difluoro-5-methyl-2,5,6,7-tetrahydro-[1,4]oxazepin-5-yl)-4-fluoro-phenylamino]-benzonitrile], for which the half-inhibitory concentration (IC50) stood at 910 nM in test [1] and 700 nM in test [2].

As to `CC1(C)OCC(N)=N[C@](C)(c2cc(Nc3cncc(F)c3)ccc2F)C1(F)F` [Example 23, (R)-6,6-Difluoro-5-[2-fluoro-5-(5-fluoro-pyridin-3-ylamino)-phenyl]-5,7,7-trimethyl-2,5,6,7-tetrahydro-[1,4]oxazepin-3-ylamine], the values for the 50% inhibitory concentration (IC50) in test [1] and in test [2] were 1360 nM and 440 nM, respectively.

On to `C[C@]1(c2cc(NC3CCCOC3)ccc2F)N=C(N)COC[C@@H]1F` (stereo partly drawn) [Example 4, (5R,6R)-6-Fluoro-5-[2-fluoro-5-(tetrahydro-pyran-3-ylamino)-phenyl]-5-methyl-2,5,6,7-tetrahydro-[1,4]oxazepin-3-ylamine], for which the IC50 in test [1] turned out to be 73 nM; in test [2], 400 nM.

Turning to `CC1(C)OCC(N)=N[C@](C)(c2cc(NC3COc4cc(Cl)ccc43)ccc2F)C1(F)F` (stereo partly drawn) [Example 17, (R)-5-[5-(6-Chloro-2,3-dihydro-benzofuran-3-ylamino)-2-fluoro-phenyl]-6,6-difluoro-5,7,7-trimethyl-2,5,6,7-tetrahydro-[1,4]oxazepin-3-ylamine], the concentration for half-maximal inhibition (IC50) in test [1] was 400 nM; in test [2] it was 320 nM.

`C[C@]1(c2cc(NC3CCc4cc(Cl)cnc43)ccc2F)N=C(N)COC[C@@H]1F` (stereo partly drawn) [Example 1, [3-((5R,6R)-3-Amino-6-fluoro-5-methyl-2,5,6,7-tetrahydro-[1,4]oxazepin-5-yl)-4-fluoro-phenyl]-(3-chloro-6,7-dihydro-5H-[1]pyrindin-7-yl)-amine]: the IC50 in test [1] was found to be 24 nM; in test [2], 70 nM.

Regarding `C[C@]1(c2cc(NCc3nn(C(F)F)cc3Cl)ccc2F)N=C(N)COCC1(F)F` [Example 6, (R)-5-{5-[(4-Chloro-1-difluoromethyl-1H-pyrazol-3-ylmethyl)-amino]-2-fluoro-phenyl}-6,6-difluoro-5-methyl-2,5,6,7-tetrahydro-[1,4]oxazepin-3-ylamine], the values for the 50% inhibitory concentration (IC50) in test [1] and in test [2] were 11 nM and 30 nM, respectively.

For the molecule `CC1(C)OCC(N)=N[C@](C)(c2cc(NC3CCCc4cc(C#N)cnc43)ccc2F)C1(F)F` (stereo partly drawn) [Example 16, 8-[3-((R)-3-Amino-6,6-difluoro-5,7,7-trimethyl-2,5,6,7-tetrahydro-[1,4]oxazepin-5-yl)-4-fluoro-phenylamino]-5,6,7,8-tetrahydro-quinoline-3-carbonitrile], the IC50 in test [1] stood at 133 nM; in test [2] it was 120 nM.

On to `C[C@]1(c2cc(NCc3nn(C(F)F)cc3Cl)ccc2F)N=C(N)COC[C@@H]1F` [Example 2, (5R,6R)-5-{5-[(4-Chloro-1-difluoromethyl-1H-pyrazol-3-ylmethyl)-amino]-2-fluoro-phenyl}-6-fluoro-5-methyl-2,5,6,7-tetrahydro-[1,4]oxazepin-3-ylamine], for which the IC50 worked out at 35 nM in test [1] and 40 nM in test [2].

Consider `CC1(C)OCC(N)=N[C@](C)(c2cc(Nc3ccc(F)cc3)ccc2F)C1(F)F` [Example 19, (R)-6,6-Difluoro-5-[2-fluoro-5-(4-fluoro-phenylamino)-phenyl]-5,7,7-trimethyl-2,5,6,7-tetrahydro-[1,4]oxazepin-3-ylamine], for which the IC50 amounted to 4160 nM in test [1] and 310 nM in test [2].

As to `CC1(C)OCC(N)=N[C@](C)(c2cc(N[C@H]3CCc4cc(C#N)cnc43)c(F)cc2F)C1(F)F` [Example 20, (S)-7-[5-((R)-3-Amino-6,6-difluoro-5,7,7-trimethyl-2,5,6,7-tetrahydro-[1,4]oxazepin-5-yl)-2,4-difluoro-phenylamino]-6,7-dihydro-5H-[1]pyrindine-3-carbonitrile], the figures for the half-maximal inhibitory concentration (IC50) in test [1] and in test [2] were 170 nM and 1900 nM, respectively.

For the molecule `CC1(C)OCC(N)=N[C@](C)(c2cc(NC3COc4cc(Cl)cnc43)ccc2F)C1(F)F` (stereo partly drawn) [Example 15, [3-((R)-3-Amino-6,6-difluoro-5,7,7-trimethyl-2,5,6,7-tetrahydro-[1,4]oxazepin-5-yl)-4-fluoro-phenyl]-(6-chloro-2,3-dihydro-furo[3,2-b]pyridin-3-yl)-amine], the IC50 in test [1] was 58 nM; in test [2], 40 nM.

As to `C[C@]1(c2cc(N[C@H]3CCc4cc(Cl)cnc43)ccc2F)N=C(N)COCC1(F)F` [Example 8, [3-((R)-3-Amino-6,6-difluoro-5-methyl-2,5,6,7-tetrahydro-[1,4]oxazepin-5-yl)-4-fluoro-phenyl]-((S)-3-chloro-6,7-dihydro-5H-[1]pyrindin-7-yl)-amine], the IC50 turned out to be 30 nM in test [1] and 90 nM in test [2].

As to `CC1(C)OCC(N)=N[C@](C)(c2cc(N[C@@H]3CCc4cc(C#N)cnc43)ccc2F)C1(F)F` [Example 13, (R)-7-[3-((R)-3-Amino-6,6-difluoro-5,7,7-trimethyl-2,5,6,7-tetrahydro-[1,4]oxazepin-5-yl)-4-fluoro-phenylamino]-6,7-dihydro-5H-[1]pyrindine-3-carbonitrile], the IC50 in test [1] came out at 95 nM; in test [2] it was 310 nM.

Take `COc1ccc(Nc2ccc(F)c([C@@]3(C)N=C(N)COC(C)(C)C3(F)F)c2)cn1` [Example 25, (R)-6,6-Difluoro-5-[2-fluoro-5-(6-methoxy-pyridin-3-ylamino)-phenyl]-5,7,7-trimethyl-2,5,6,7-tetrahydro-[1,4]oxazepin-3-ylamine]: the half-inhibitory concentration (IC50) in test [1] was found to be 1630 nM; in test [2], 410 nM.

`CC1(C)OCC(N)=N[C@](C)(c2cc(Nc3ccc(OCC(F)(F)F)nc3)ccc2F)C1(F)F` [Example 28, (R)-6,6-Difluoro-5-{2-fluoro-5-[6-(2,2,2-trifluoro-ethoxy)-pyridin-3-ylamino]-phenyl}-5,7,7-trimethyl-2,5,6,7-tetrahydro-[1,4]oxazepin-3-ylamine]: the values for the IC50 in test [1] and in test [2] were 1490 nM and 12700 nM, respectively.

`Cc1ccc(Nc2ccc(F)c([C@@]3(C)N=C(N)COC(C)(C)C3(F)F)c2)cn1` [Example 27, (R)-6,6-Difluoro-5-[2-fluoro-5-(6-methyl-pyridin-3-ylamino)-phenyl]-5,7,7-trimethyl-2,5,6,7-tetrahydro-[1,4]oxazepin-3-ylamine] gave an IC50 in test [2] of 5900 nM.
